Reference: US4336375A, “Cephalosporanic acid derivatives” (American Cyanamid Company, priority 1980, dated 1982)
Converted amounts (≈) assume the structure as drawn. Like-named read-outs stand apart in the source and are kept apart here.

Legend:
[1] = system: Klebsiella pneumoniae W-75-2; assay: In vivo systemic lethal infection of mice, Klebsiella pneumoniae W-75-2; set-up: species or system Charles River CD-1 mice; details: CD-1 mice
Excerpt: (§1) As shown in Table II these compounds show high in vivo antibacterial activity against Escherichia coli 311 and Klebsiella pneumoniae W-75-2 when administered by a single subcutaneous dose to groups of Charles River CD-1 mice, weighing about 20 g. each. The mice are infected intraperitoneally with a lethal dose of these bacteria.

Escherichia coli 311 [2] = assay: In vivo systemic lethal infection of mice, Escherichia coli 311; set-up: species or system Charles River CD-1 mice; details: CD-1 mice
Excerpt: as §1

[3] = system: Klebsiella pneumoniae W75-2; assay: In vitro MIC, agar dilution, Klebsiella pneumoniae W75-2; type: cell-based; details: W752; Klebsiella pneumoniae W75-2; agar dilution, 35° C., 18 hours, nutrient agar; read-out: Minimal Inhibitory Concentration
Description: (§2) The in vitro activity of representative compounds of the present invention are given in the following Table I in terms of minimal inhibitory concentration. The test used was the standard agar dilution test using a Steers multiple inocula replicator and incubating at 35° C. for 18 hours in conventional nutrient agar.

Klebsiella pneumoniae AD = assay: In vitro MIC, agar dilution, Klebsiella pneumoniae AD; type: cell-based; details: Klebsiella pneumoniae AD; agar dilution, 35° C., 18 hours, nutrient agar; read-out: Minimal Inhibitory Concentration
Description: as §2

Enterococcus SM77-15 = assay: In vitro MIC, agar dilution, Enterococcus SM77-15; type: cell-based; details: SM7715; Enterococcus SM77-15; agar dilution, 35° C., 18 hours, nutrient agar; read-out: Minimal Inhibitory Concentration
Description: as §2

Escherichia coli 311 [4] = assay: In vitro MIC, agar dilution, Escherichia coli 311; type: cell-based; details: 35° C., 18 hours, nutrient agar, read-out: Minimal Inhibitory Concentration
Description: as §2

[5] = system: Enterobacter cloacae MA75-1; assay: In vitro MIC, agar dilution, Enterobacter cloacae MA75-1; type: cell-based; details: read-out: Minimal Inhibitory Concentration
Description: as §2

Serratia marcens K77-1 = assay: In vitro MIC, agar dilution, Serratia marcens K77-1; type: cell-based; details: K771; Serratia marcens K77-1; agar dilution, 35° C., 18 hours, nutrient agar; read-out: Minimal Inhibitory Concentration
Description: as §2

[6] = system: Staphylococcus aureus Q74-6; assay: In vitro MIC, agar dilution, Staphylococcus aureus Q74-6; type: cell-based; details: Q746; Staphylococcus aureus Q74-6; agar dilution, 35° C., 18 hours, nutrient agar; read-out: Minimal Inhibitory Concentration
Description: as §2

[7] = system: Pseudomonas aeruginosa PD05141; assay: In vitro MIC, agar dilution, Pseudomonas aeruginosa PD05141; type: cell-based; details: Pseudomonas aeruginosa PD05141; agar dilution, 35° C., 18 hours, nutrient agar; read-out: Minimal Inhibitory Concentration
Description: as §2

[8] = system: Pseudomonas aeruginosa G236; assay: In vitro MIC, agar dilution, Pseudomonas aeruginosa G236; type: cell-based; details: read-out: Minimal Inhibitory Concentration
Description: as §2

[9] = system: Klebsiella pneumoniae W75-4; assay: In vitro MIC, agar dilution, Klebsiella pneumoniae W75-4; type: cell-based; details: W754; Klebsiella pneumoniae W75-4; agar dilution, 35° C., 18 hours, nutrient agar; read-out: Minimal Inhibitory Concentration
Description: as §2

[10] = system: Escherichia coli ESS22-31; assay: In vitro MIC, agar dilution, Escherichia coli ESS22-31; type: cell-based; details: ESS2231; Escherichia coli ESS22-31; agar dilution, 35° C., 18 hours, nutrient agar; read-out: Minimal Inhibitory Concentration
Description: as §2

Escherichia coli W75-1 = assay: In vitro MIC, agar dilution, Escherichia coli W75-1; type: cell-based; details: W751, 35° C., 18 hours, nutrient agar, read-out: Minimal Inhibitory Concentration
Description: as §2

[11] = system: Klebsiella pneumoniae MA75-1; assay: In vitro MIC, agar dilution, Klebsiella pneumoniae MA75-1; type: cell-based; details: MA751; Klebsiella pneumoniae MA75-1; agar dilution, 35° C., 18 hours, nutrient agar; read-out: Minimal Inhibitory Concentration
Description: as §2

Proteus vulgaris N74-1 = assay: In vitro MIC, agar dilution, Proteus vulgaris N74-1; type: cell-based; details: N741, 35° C., 18 hours, nutrient agar, read-out: Minimal Inhibitory Concentration
Description: as §2

[12] = system: Enterobacter aerogenes UR76-3; assay: In vitro MIC, agar dilution, Enterobacter aerogenes UR76-3; type: cell-based; details: Klebsiella aerogenes, UR763; Enterobacter aerogenes UR76-3; agar dilution, 35° C., 18 hours, nutrient agar; read-out: Minimal Inhibitory Concentration
Description: as §2

[13] = system: Staphylococcus aureus Q74-1; assay: In vitro MIC, agar dilution, Staphylococcus aureus Q74-1; type: cell-based; details: Q741; Staphylococcus aureus Q74-1; agar dilution, 35° C., 18 hours, nutrient agar; read-out: Minimal Inhibitory Concentration
Description: as §2

Proteus morganii K72 = assay: In vitro MIC, agar dilution, Proteus morganii K72; type: cell-based; details: Morganella morganii; Proteus morganii K72; agar dilution, 35° C., 18 hours, nutrient agar; read-out: Minimal Inhibitory Concentration
Description: as §2

Serratia K101 = assay: In vitro MIC, agar dilution, Serratia K101; type: cell-based; details: Serratia K101; agar dilution, 35° C., 18 hours, nutrient agar; read-out: Minimal Inhibitory Concentration
Description: as §2

Serratia marcens QHC77-2 = assay: In vitro MIC, agar dilution, Serratia marcens QHC77-2; type: cell-based; details: QHC772; Serratia marcens QHC77-2; agar dilution, 35° C., 18 hours, nutrient agar; read-out: Minimal Inhibitory Concentration
Description: as §2

[14] = system: Klebsiella pneumoniae UR76-1; assay: In vitro MIC, agar dilution, Klebsiella pneumoniae UR76-1; type: cell-based; details: UR761; Klebsiella pneumoniae UR76-1; agar dilution, 35° C., 18 hours, nutrient agar; read-out: Minimal Inhibitory Concentration
Description: as §2

[15] = system: Pseudomonas aeruginosa UCS 76-13; assay: In vitro MIC, agar dilution, Pseudomonas aeruginosa UCS 76-13; type: cell-based; details: UCS7613; Pseudomonas aeruginosa UCS 76-13; agar dilution, 35° C., 18 hours, nutrient agar; read-out: Minimal Inhibitory Concentration
Description: as §2

Proteus rettgeri N76-1 = assay: In vitro MIC, agar dilution, Proteus rettgeri N76-1; type: cell-based; details: Providencia rettgeri, N761; Proteus rettgeri N76-1; agar dilution, 35° C., 18 hours, nutrient agar; read-out: Minimal Inhibitory Concentration
Description: as §2

[16] = system: Pseudomonas aeruginosa 12-4-4; assay: In vitro MIC, agar dilution, Pseudomonas aeruginosa 12-4-4; type: cell-based; details: read-out: Minimal Inhibitory Concentration
Description: as §2

Escherichia coli OSU75-1 = assay: In vitro MIC, agar dilution, Escherichia coli OSU75-1; type: cell-based; details: OSU751, 35° C., 18 hours, nutrient agar, read-out: Minimal Inhibitory Concentration
Description: as §2

[17] = system: Enterobacter cloacae OSU75-2; assay: In vitro MIC, agar dilution, Enterobacter cloacae OSU75-2; type: cell-based; details: OSU752; Enterobacter cloacae OSU75-2; agar dilution, 35° C., 18 hours, nutrient agar; read-out: Minimal Inhibitory Concentration
Description: as §2

[18] = single subcutaneous dose 0.5 mg./kg.
[19] = single subcutaneous dose 1 mg./kg.
[20] = single subcutaneous dose 2 mg./kg.
[21] = single subcutaneous dose 4 mg./kg.
[22] = single subcutaneous dose 8 mg./kg.
[23] = MA751, Enterobacter cloacae MA75-1, agar dilution, 35° C., 18 hours, nutrient agar
[24] = Pseudomonas aeruginosa G236, agar dilution, 35° C., 18 hours, nutrient agar
[25] = 1244, Pseudomonas aeruginosa 12-4-4, agar dilution, 35° C., 18 hours, nutrient agar

| SMILES | Alive/Total Mice Tested, 7 Days After Infection (Escherichia coli 311 [2]; [21]) | Alive/Total Mice Tested, 7 Days After Infection (Escherichia coli 311 [2]; [22]) | MIC [3] [µg/mL] | MIC (Klebsiella pneumoniae AD) [µg/mL] | MIC (Enterococcus SM77-15) [µg/mL] | MIC (Escherichia coli 311 [4]) [µg/mL] | MIC (Serratia marcens K77-1) [µg/mL] | MIC [6] [µg/mL] | MIC [7] [µg/mL] | MIC [9] [µg/mL] | MIC [10] [µg/mL] | MIC (Escherichia coli W75-1) [µg/mL] | MIC [11] [µg/mL] | MIC (Proteus vulgaris N74-1) [µg/mL] | MIC [12] [µg/mL] | MIC [13] [µg/mL] | MIC (Proteus morganii K72) [µg/mL] | MIC (Serratia K101) [µg/mL] | Alive/Total Mice Tested, 7 Days After Infection (Escherichia coli 311 [2]; [19]) | Alive/Total Mice Tested, 7 Days After Infection (Escherichia coli 311 [2]; [20]) | further results |
| --- | --- | --- | --- | --- | --- | --- | --- | --- | --- | --- | --- | --- | --- | --- | --- | --- | --- | --- | --- | --- | --- |
| Cn1nnnc1SCC1=C(C(=O)O)N2C(=O)[C@@H](NC(=O)[C@H](O)c3ccccc3)[C@H]2SC1 [Cefamandol] | 6/20 | 11/20 | – | – | – | – | – | – | – | – | – | – | – | – | – | – | – | – | – | – | Alive/Total Mice Tested, 7 Days After Infection [1, 18]: 0/20; Alive/Total Mice Tested, 7 Days After Infection [1, 19]: 1/20; Alive/Total Mice Tested, 7 Days After Infection [1, 20]: 7/20; Alive/Total Mice Tested, 7 Days After Infection [1, 21]: 19/20; Alive/Total Mice Tested, 7 Days After Infection [1, 22]: 20/20; Alive/Total Mice Tested, 7 Days After Infection (Escherichia coli 311 [2]; single subcutaneous dose 16 mg./kg.): 20/20; Alive/Total Mice Tested, 7 Days After Infection (Escherichia coli 311 [2]; single subcutaneous dose 32 mg./kg.): 20/20 |
| CO/N=C(\C(=O)NC1C(=O)N2C(C(=O)O)=C(CSc3nnc(-n4nc(C)cc4C)n3N)CSC12)c1csc(N)n1 (stereo not drawn) [Compound II, 7-[2-(Syn-methoxyimino)-2-(2-aminothiazol-4-yl)acetamido]-3-[4-amino-5-(1-[3,5-dimethyl]pyrazolyl)-1,2,4-triazol-3-ylthiomethyl]-3-cephem-4-carboxylicacid] | 5/5 | 5/5 | 0.25 (≈ 0.413 µM) | ≤ 0.12 | > 128 | ≤ 0.12 | 1 (≈ 1.65 µM) | 64 (≈ 106 µM) | > 128 | 0.25 (≈ 0.413 µM) | ≤ 0.12 | 0.25 (≈ 0.413 µM) | ≤ 0.12 | 0.5 (≈ 0.826 µM) | ≤ 0.12 | 2 (≈ 3.3 µM) | 0.5 (≈ 0.826 µM) | 1 (≈ 1.65 µM) | 0/5 | 5/5 | MIC [5, 23]: 128 µg/mL (≈ 211 µM); MIC [8, 24]: 128 µg/mL (≈ 211 µM); MIC (Serratia marcens QHC77-2): 2 µg/mL (≈ 3.3 µM); MIC [14]: 0.5 µg/mL (≈ 0.826 µM); MIC [15]: > 128 µg/mL; MIC (Proteus rettgeri N76-1): 0.5 µg/mL (≈ 0.826 µM); MIC ([16]; Pseudomonas aeruginosa, 1244, 18 h): 64 µg/mL (≈ 106 µM); MIC (Escherichia coli OSU75-1): 0.25 µg/mL (≈ 0.413 µM); MIC [17]: 2 µg/mL (≈ 3.3 µM) |
| CO/N=C(\C(=O)NC1C(=O)N2C(C(=O)O)=C(CSc3nnc(-n4nc(C)cc4-c4ccccc4)n3N)CSC12)c1csc(N)n1 (stereo not drawn) [Compound III, 7-[2-(Syn-methoxyimino)-2-(2-aminothiazol-4-yl)acetamido]-3-[4-amino-5-(1-[3-methyl-5-phenyl]pyrazolyl)-1,2,4-triazol-3-ylthiomethyl]-3-cephem-4-carboxylic acid] | 5/5 | 5/5 | 1 (≈ 1.5 µM) | 0.5 (≈ 0.749 µM) | > 128 | 0.25 (≈ 0.374 µM) | 4 (≈ 5.99 µM) | 32 (≈ 47.9 µM) | > 128 | 1 (≈ 1.5 µM) | ≤ 0.12 | 1 (≈ 1.5 µM) | 0.5 (≈ 0.749 µM) | 1 (≈ 1.5 µM) | 0.25 (≈ 0.374 µM) | 2 (≈ 3 µM) | 2 (≈ 3 µM) | 4 (≈ 5.99 µM) | 0/5 | 0/5 | MIC [5, 23]: 128 µg/mL (≈ 192 µM); MIC ([8]; Pseudomonas aeruginosa, G236, 18 h): > 128 µg/mL; MIC (Serratia marcens QHC77-2): 8 µg/mL (≈ 12 µM); MIC [14]: 4 µg/mL (≈ 5.99 µM); MIC [15]: > 128 µg/mL; MIC (Proteus rettgeri N76-1): 1 µg/mL (≈ 1.5 µM); MIC [16, 25]: 128 µg/mL (≈ 192 µM); MIC (Escherichia coli OSU75-1): 1 µg/mL (≈ 1.5 µM); MIC [17]: 4 µg/mL (≈ 5.99 µM) |
| CO/N=C(\C(=O)NC1C(=O)N2C(C(=O)O)=C(CSc3n[nH]c(-n4cccn4)n3)CSC12)c1csc(N)n1 (stereo not drawn) [Compound V, 7-[2-(Syn-methoxyimino)-2-(2-aminothiazol-4-yl)acetamido]-3-[5-(1-pyrazolyl)-1,2,4-triazol-3-ylthiomethyl]-3-cephem-4-carboxylic acid] | 5/5 | – | ≤ 0.12 | ≤ 0.12 | > 128 | ≤ 0.12 | 0.5 (≈ 0.889 µM) | 64 (≈ 114 µM) | 64 (≈ 114 µM) | ≤ 0.12 | ≤ 0.12 | ≤ 0.12 | ≤ 0.12 | 2 (≈ 3.55 µM) | ≤ 0.12 | 1 (≈ 1.78 µM) | ≤ 0.12 | 0.5 (≈ 0.889 µM) | 5/5 | 5/5 | MIC ([5]; Enterobacter cloacae, MA751, 18 h): > 128 µg/mL; MIC [8, 24]: 16 µg/mL (≈ 28.4 µM); Alive/Total Mice Tested, 7 Days After Infection (Escherichia coli 311 [2]; single subcutaneous dose 0.25 mg./kg.): 0/5; Alive/Total Mice Tested, 7 Days After Infection (Escherichia coli 311 [2]; [18]): 0/5; MIC (Serratia marcens QHC77-2): 0.25 µg/mL (≈ 0.444 µM); MIC [14]: 0.25 µg/mL (≈ 0.444 µM); MIC [15]: 64 µg/mL (≈ 114 µM); MIC (Proteus rettgeri N76-1): ≤ 0.12 µg/mL; MIC [16, 25]: 16 µg/mL (≈ 28.4 µM); MIC (Escherichia coli OSU75-1): ≤ 0.12 µg/mL; MIC [17]: 4 µg/mL (≈ 7.11 µM) |
